Measured values reported in patent publication EP0802730B1, “PESTICIDAL COMPOUNDS” (BTG INTERNATIONAL LIMITED, priority 1995, dated 1996).
Converted amounts (≈) assume the structure as drawn.

Test system: Myzus persicae, extremely resistant strain (794Jz)
Assay: Aphid dip test, resistant strain
Format: in vivo
Conditions: read-out: % mortality corrected for control data

SMILES | mortality at 100 ppm | mortality at 250 ppm | mortality at 40 ppm
CCC(C)(C)C1=C(O)C(=O)c2ccccc2C1=O [Example 1, 2-(1,1-dimethylpropyl)-3-hydroxynaphthalene-1,4-dione] | 10% | 43% | 
CCC(C)(C)C1=C(OC(C)=O)C(=O)c2ccccc2C1=O [Example 2, 2-(1,1-dimethylpropyl)-3-ethanoyloxy-naphthalene-1,4-dione] | 17% | 47% | 
CC(C)(C)C1=C(O)C(=O)c2ccccc2C1=O [Example 3, 2-(t-butyl)-3-hydroxy-naphthalene-1,4-dione] | 13% | 87% | 10%
CC1(C2=C(O)C(=O)c3ccccc3C2=O)CCCCC1 [Example 25, 2-hydroxy-3-(1'-methylcyclohexyl)-naphthalene-1,4-dione] | 27% | 79% | 10%

Test system: resistant strain of whitefly (Ned 1/2)
Assay: Whitefly vial test, resistant strain Ned 1/2
Format: in vivo
Conditions: Bemisia tabaci, 48 h, read-out: BT (Ned 1/2) (LC50)
Description: Acetone solutions (0.100 ml) of the test compounds were placed in 10 ml glass vials and evaporated with rotation to deposit a film of the compound. Thirty adult whiteflies were placed inside the vial, then after 60 minutes, the treated insects were transferred onto untreated cotton leaf discs which were kept moist on a bed of agar gel. The temperature was maintained at 25°C and mortality assessed after 48 hours. Three replicates were used at each of 5 to 7 dose levels per compound. LC50 values (ppm solution) were calculated by using a computer software package ("Polo-PC available from LeOra Software, Berkeley, California) (See M.R. Cahill and B. Hackett in Proceedings Brighton Crop Protection Conference, 1992). The test was carried out using a susceptible strain of whitefly (SUD-S) which was collected in Sudan in 1978 from cotton.
The whitefly activity test with (BT (SUD-S)) was repeated using a resistant strain of whitefly (Ned 1/2).

SMILES | LC50
CC(C)(C)C1CCC(C2=C(O)C(=O)c3ccccc3C2=O)CC1 (stereo not drawn) [Compound B, 2-hydroxy-3-(4-t-butylcyclohexyl)-naphthalene-1,4-dione, reference compound] | 100 µg/mL (≈ 320 µM)
CC1(C2=C(O)C(=O)c3ccccc3C2=O)CCCCC1 [Example 25, 2-hydroxy-3-(1'-methylcyclohexyl)-naphthalene-1,4-dione] | 0.1 µg/mL (≈ 0.37 µM)
